Results taken from patent US9340590B2 (priority 2011, dated 2016).
Positions of bridges follow the written chain, without caps; N, C: chain ends. Non-standard residues stand in square brackets, D forms with d. Residues, ends and D or L forms follow the SMILES beside them. NMeF = CN[C@@H](Cc1ccccc1)C(=O)O

How the values were obtained:
Experiment in all cases: cell-based
hNav1.7 = hNav1.7 (Homo sapiens, UniProt Q15858); format: cell-based; settings: IonWorks Quattro, Use; read-out: IWQ Use Nav1.7
hNav1.3 = hNav1.3 (Homo sapiens, UniProt Q9NY46); settings: IonWorks Quattro, Use; read-out: IWQ Use Nav1.3
hNav1.5 = hNav1.5 (Homo sapiens, UniProt Q14524); settings: IonWorks Quattro, Use; read-out: IWQ Use Nav1.5
Chain of hNav1.5 (Q14524 whole entry, looked up): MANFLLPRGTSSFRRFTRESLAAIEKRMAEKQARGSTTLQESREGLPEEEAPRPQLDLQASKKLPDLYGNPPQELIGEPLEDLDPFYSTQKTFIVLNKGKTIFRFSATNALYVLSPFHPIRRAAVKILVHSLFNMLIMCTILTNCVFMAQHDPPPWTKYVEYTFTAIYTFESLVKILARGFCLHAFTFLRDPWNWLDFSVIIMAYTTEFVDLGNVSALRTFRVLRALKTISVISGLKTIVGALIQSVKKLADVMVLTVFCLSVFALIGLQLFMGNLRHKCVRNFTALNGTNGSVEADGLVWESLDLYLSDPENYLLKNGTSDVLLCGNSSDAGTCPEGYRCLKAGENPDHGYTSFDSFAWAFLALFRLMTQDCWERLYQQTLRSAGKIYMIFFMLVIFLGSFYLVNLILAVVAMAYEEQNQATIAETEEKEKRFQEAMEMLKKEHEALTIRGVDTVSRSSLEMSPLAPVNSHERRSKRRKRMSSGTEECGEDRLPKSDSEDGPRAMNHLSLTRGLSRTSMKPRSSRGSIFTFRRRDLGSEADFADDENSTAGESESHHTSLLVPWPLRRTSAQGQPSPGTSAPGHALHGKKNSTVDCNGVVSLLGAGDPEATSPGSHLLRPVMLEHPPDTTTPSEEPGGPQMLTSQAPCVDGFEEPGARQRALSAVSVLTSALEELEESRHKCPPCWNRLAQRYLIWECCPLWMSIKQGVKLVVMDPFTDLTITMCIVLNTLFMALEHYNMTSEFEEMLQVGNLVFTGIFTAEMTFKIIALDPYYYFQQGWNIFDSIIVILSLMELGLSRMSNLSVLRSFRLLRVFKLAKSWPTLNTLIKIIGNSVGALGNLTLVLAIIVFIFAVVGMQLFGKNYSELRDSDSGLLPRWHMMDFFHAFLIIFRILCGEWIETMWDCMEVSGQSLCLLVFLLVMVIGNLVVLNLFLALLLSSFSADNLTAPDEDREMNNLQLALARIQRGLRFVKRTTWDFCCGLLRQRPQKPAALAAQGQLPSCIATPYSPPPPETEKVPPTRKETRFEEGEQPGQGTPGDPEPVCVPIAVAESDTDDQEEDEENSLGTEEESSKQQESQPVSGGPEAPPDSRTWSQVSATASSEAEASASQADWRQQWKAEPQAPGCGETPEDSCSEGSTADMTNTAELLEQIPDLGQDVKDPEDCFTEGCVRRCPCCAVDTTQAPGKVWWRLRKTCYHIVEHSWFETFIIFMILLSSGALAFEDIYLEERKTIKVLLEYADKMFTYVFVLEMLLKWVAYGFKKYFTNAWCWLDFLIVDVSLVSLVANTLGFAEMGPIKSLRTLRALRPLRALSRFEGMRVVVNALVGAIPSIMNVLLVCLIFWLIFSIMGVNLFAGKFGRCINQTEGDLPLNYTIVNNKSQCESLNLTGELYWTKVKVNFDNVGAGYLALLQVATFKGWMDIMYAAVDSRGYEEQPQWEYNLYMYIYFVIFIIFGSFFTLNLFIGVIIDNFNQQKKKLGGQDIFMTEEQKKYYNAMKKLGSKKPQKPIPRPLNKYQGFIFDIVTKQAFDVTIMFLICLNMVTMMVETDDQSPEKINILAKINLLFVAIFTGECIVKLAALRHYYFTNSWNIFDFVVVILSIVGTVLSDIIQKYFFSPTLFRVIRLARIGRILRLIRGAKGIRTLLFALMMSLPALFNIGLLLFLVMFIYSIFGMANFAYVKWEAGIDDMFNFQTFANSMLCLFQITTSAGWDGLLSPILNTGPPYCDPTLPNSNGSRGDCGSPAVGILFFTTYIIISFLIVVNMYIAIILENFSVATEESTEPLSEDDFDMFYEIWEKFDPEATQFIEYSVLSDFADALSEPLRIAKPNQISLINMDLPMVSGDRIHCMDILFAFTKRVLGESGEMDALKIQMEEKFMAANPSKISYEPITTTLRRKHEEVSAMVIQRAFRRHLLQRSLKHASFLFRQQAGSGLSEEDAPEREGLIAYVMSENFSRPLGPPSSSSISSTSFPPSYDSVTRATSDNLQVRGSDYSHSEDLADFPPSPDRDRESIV

Chain of hNav1.3 (Q9NY46 whole entry, looked up): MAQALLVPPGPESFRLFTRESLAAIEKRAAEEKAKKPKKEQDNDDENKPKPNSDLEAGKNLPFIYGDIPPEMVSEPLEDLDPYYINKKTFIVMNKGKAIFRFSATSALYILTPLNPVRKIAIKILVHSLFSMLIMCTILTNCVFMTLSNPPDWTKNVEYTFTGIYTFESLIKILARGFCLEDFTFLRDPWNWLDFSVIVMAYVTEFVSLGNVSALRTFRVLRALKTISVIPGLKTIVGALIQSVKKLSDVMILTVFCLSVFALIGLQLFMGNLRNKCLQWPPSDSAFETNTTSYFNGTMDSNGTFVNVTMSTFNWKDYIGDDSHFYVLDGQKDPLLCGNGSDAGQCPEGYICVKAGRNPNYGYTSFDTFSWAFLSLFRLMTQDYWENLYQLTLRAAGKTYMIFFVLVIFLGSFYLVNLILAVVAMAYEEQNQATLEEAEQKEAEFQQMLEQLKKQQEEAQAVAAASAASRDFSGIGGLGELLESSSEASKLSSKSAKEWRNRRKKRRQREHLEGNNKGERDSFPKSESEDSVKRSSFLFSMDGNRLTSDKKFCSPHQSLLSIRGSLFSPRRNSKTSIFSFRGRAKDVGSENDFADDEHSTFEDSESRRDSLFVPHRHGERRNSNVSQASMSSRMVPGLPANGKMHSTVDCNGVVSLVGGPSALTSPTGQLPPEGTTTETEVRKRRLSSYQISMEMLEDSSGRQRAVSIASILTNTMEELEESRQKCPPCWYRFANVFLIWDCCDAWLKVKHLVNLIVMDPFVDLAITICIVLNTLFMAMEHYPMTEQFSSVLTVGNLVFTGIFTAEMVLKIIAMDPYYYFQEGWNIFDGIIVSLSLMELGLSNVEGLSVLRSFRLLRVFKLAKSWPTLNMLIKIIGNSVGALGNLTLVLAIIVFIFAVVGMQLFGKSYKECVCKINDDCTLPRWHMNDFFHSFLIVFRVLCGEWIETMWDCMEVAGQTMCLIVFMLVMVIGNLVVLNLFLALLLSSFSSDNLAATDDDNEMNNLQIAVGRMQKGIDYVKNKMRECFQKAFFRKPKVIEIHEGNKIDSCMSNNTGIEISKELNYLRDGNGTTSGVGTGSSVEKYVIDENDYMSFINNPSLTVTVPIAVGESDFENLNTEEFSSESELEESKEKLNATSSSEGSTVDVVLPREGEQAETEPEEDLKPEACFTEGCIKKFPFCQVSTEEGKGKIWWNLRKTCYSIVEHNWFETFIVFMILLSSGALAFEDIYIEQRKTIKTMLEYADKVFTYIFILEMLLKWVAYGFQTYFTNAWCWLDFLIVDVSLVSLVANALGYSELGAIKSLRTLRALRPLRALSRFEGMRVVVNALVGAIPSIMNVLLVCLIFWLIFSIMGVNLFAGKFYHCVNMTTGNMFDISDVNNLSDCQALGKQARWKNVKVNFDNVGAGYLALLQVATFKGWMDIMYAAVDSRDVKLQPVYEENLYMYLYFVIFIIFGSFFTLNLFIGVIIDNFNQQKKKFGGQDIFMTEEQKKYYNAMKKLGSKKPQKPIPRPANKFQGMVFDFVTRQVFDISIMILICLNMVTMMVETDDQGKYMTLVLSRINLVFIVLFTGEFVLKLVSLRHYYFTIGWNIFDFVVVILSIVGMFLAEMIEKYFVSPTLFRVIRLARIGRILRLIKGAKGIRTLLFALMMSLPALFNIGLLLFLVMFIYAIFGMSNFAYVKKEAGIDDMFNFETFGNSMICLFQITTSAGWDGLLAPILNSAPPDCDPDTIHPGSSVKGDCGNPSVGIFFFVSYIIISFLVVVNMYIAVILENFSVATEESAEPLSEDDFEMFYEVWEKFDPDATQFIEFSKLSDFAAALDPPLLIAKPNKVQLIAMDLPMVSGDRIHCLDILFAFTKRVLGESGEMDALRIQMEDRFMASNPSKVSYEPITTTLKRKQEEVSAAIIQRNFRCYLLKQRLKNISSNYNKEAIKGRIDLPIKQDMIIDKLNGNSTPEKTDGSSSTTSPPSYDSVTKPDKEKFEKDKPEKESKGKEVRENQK

| SMILES | IC50 (hNav1.7) | IC50 (hNav1.3) | IC50 (hNav1.5) |
| --- | --- | --- | --- |
| CC[C@H](C)[C@@H]1NC(=O)[C@H](CC(C)C)NC(=O)[C@H](CC(N)=O)NC(=O)[C@@H]2CCCN2C(=O)[C@H](CCCNC(=N)N)NC(=O)[C@@H]2CSSC[C@H](NC(=O)[C@@H](N)CC(=O)O)C(=O)N[C@@H](CC(C)C)C(=O)NCC(=O)N[C@@H](Cc3ccccc3)C(=O)N[C@@H](CCSC)C(=O)N[C@@H](CCCNC(=N)N)C(=O)N[C@@H](CCCCN)C(=O)N[C@H]3CSSC[C@H](NC1=O)C(=O)N[C@@H](CO)C(=O)N[C@@H](CCCNC(=N)N)C(=O)N[C@@H]([C@@H](C)O)C(=O)N[C@@H](Cc1c[nH]cn1)C(=O)N[C@@H](CCCCN)C(=O)N[C@@H](Cc1c[nH]c4ccccc14)C(=O)N[C@H](C(=O)N[C@@H](CCCCN)C(=O)N[C@@H](Cc1ccc(O)cc1)C(=O)N[C@H](C(=O)N[C@@H](Cc1ccccc1)C(N)=O)C(C)C)CSSC[C@H](NC(=O)[C@H](CCCCN)NC(=O)[C@H](CC(=O)O)NC(=O)[C@H](CC(N)=O)NC(=O)[C@H](CC(=O)O)NC(=O)[C@@H]1CCCN1C(=O)[C@H]([C@@H](C)CC)NC3=O)C(=O)N2 [compound 321] (H-DCLGFMRKCIPDNDKCCRPNLICSRTHKWCKYVF-NH2; disulfide 2-17, 9-23, 16-30) | 80 nM | 70 nM | 11500 nM |
| CC[C@H](C)[C@@H]1NC(=O)[C@@H]2CSSC[C@@H]3NC(=O)[C@H](CC(C)C)NC(=O)[C@H](CC(C)C)NC(=O)[C@H](CC(N)=O)NC(=O)[C@@H]4CCCN4C(=O)[C@H](CCCNC(=N)N)NC(=O)[C@H](CSSC[C@H](NC(=O)[C@@H](N)CC(=O)O)C(=O)N[C@@H](CC(C)C)C(=O)NCC(=O)N[C@@H](Cc4ccccc4)C(=O)N[C@@H](CCSC)C(=O)N[C@@H](CCCNC(=N)N)C(=O)N[C@@H](CCCCN)C(=O)N2)NC(=O)[C@H](CSSC[C@@H](C(=O)N[C@@H](CCCCN)C(=O)N[C@@H](Cc2ccc(O)cc2)C(=O)N[C@H](C(=O)N[C@@H](Cc2ccccc2)C(N)=O)C(C)C)NC(=O)[C@H](Cc2c[nH]c4ccccc24)NC(=O)[C@H](CCCCN)NC(=O)[C@H](Cc2c[nH]cn2)NC(=O)[C@H]([C@@H](C)O)NC(=O)[C@H](CCCNC(=N)N)NC(=O)[C@H](CO)NC3=O)NC(=O)[C@H](CCCCN)NC(=O)[C@H](CC(=O)O)NC(=O)[C@H](CC(N)=O)NC(=O)[C@H](CC(=O)O)NC(=O)[C@@H]2CCCN2C1=O [compound 322] (H-DCLGFMRKCIPDNDKCCRPNLLCSRTHKWCKYVF-NH2; disulfide 2-17, 9-23, 16-30) | 90 nM | 70 nM | 9580 nM |
| CC[C@H](C)[C@@H]1NC(=O)[C@@H]2CSSC[C@@H]3NC(=O)[C@H](CO)NC(=O)[C@H](CC(C)C)NC(=O)[C@H](CC(N)=O)NC(=O)[C@@H]4CCCN4C(=O)[C@H](CCCNC(=N)N)NC(=O)[C@H](CSSC[C@H](NC(=O)[C@@H](N)CC(=O)O)C(=O)N[C@@H](CC(C)C)C(=O)NCC(=O)N[C@@H](Cc4ccccc4)C(=O)N[C@@H](CCSC)C(=O)N[C@@H](CCCNC(=N)N)C(=O)N[C@@H](CCCCN)C(=O)N2)NC(=O)[C@H](CSSC[C@@H](C(=O)N[C@@H](CCCCN)C(=O)N[C@@H](Cc2ccc(O)cc2)C(=O)N[C@H](C(=O)N[C@@H](Cc2ccccc2)C(N)=O)C(C)C)NC(=O)[C@H](Cc2c[nH]c4ccccc24)NC(=O)[C@H](CCCCN)NC(=O)[C@H](Cc2c[nH]cn2)NC(=O)[C@H]([C@@H](C)O)NC(=O)[C@H](CCCNC(=N)N)NC(=O)[C@H](CO)NC3=O)NC(=O)[C@H](CCCCN)NC(=O)[C@H](CC(=O)O)NC(=O)[C@H](CC(N)=O)NC(=O)[C@H](CC(=O)O)NC(=O)[C@@H]2CCCN2C1=O [compound 323] (H-DCLGFMRKCIPDNDKCCRPNLSCSRTHKWCKYVF-NH2; disulfide 2-17, 9-23, 16-30) | 100 nM | 90 nM | 4420 nM |
| CC[C@H](C)[C@@H]1NC(=O)[C@@H]2CSSC[C@@H]3NC(=O)CNC(=O)[C@H](CC(C)C)NC(=O)[C@H](CC(N)=O)NC(=O)[C@@H]4CCCN4C(=O)[C@H](CCCNC(=N)N)NC(=O)[C@H](CSSC[C@H](NC(=O)[C@@H](N)CC(=O)O)C(=O)N[C@@H](CC(C)C)C(=O)NCC(=O)N[C@@H](Cc4ccccc4)C(=O)N[C@@H](CCSC)C(=O)N[C@@H](CCCNC(=N)N)C(=O)N[C@@H](CCCCN)C(=O)N2)NC(=O)[C@H](CSSC[C@@H](C(=O)N[C@@H](CCCCN)C(=O)N[C@@H](Cc2ccc(O)cc2)C(=O)N[C@H](C(=O)N[C@@H](Cc2ccccc2)C(N)=O)C(C)C)NC(=O)[C@H](Cc2c[nH]c4ccccc24)NC(=O)[C@H](CCCCN)NC(=O)[C@H](Cc2c[nH]cn2)NC(=O)[C@H]([C@@H](C)O)NC(=O)[C@H](CCCNC(=N)N)NC(=O)[C@H](CO)NC3=O)NC(=O)[C@H](CCCCN)NC(=O)[C@H](CC(=O)O)NC(=O)[C@H](CC(N)=O)NC(=O)[C@H](CC(=O)O)NC(=O)[C@@H]2CCCN2C1=O [compound 324] (H-DCLGFMRKCIPDNDKCCRPNLGCSRTHKWCKYVF-NH2; disulfide 2-17, 9-23, 16-30) | 140 nM | 100 nM | 10900 nM |
| CC[C@H](C)[C@@H]1NC(=O)[C@@H]2CSSC[C@@H]3NC(=O)[C@H](CC(N)=O)NC(=O)[C@H](CC(C)C)NC(=O)[C@H](CC(N)=O)NC(=O)[C@@H]4CCCN4C(=O)[C@H](CCCNC(=N)N)NC(=O)[C@H](CSSC[C@H](NC(=O)[C@@H](N)CC(=O)O)C(=O)N[C@@H](CC(C)C)C(=O)NCC(=O)N[C@@H](Cc4ccccc4)C(=O)N[C@@H](CCSC)C(=O)N[C@@H](CCCNC(=N)N)C(=O)N[C@@H](CCCCN)C(=O)N2)NC(=O)[C@H](CSSC[C@@H](C(=O)N[C@@H](CCCCN)C(=O)N[C@@H](Cc2ccc(O)cc2)C(=O)N[C@H](C(=O)N[C@@H](Cc2ccccc2)C(N)=O)C(C)C)NC(=O)[C@H](Cc2c[nH]c4ccccc24)NC(=O)[C@H](CCCCN)NC(=O)[C@H](Cc2c[nH]cn2)NC(=O)[C@H]([C@@H](C)O)NC(=O)[C@H](CCCNC(=N)N)NC(=O)[C@H](CO)NC3=O)NC(=O)[C@H](CCCCN)NC(=O)[C@H](CC(=O)O)NC(=O)[C@H](CC(N)=O)NC(=O)[C@H](CC(=O)O)NC(=O)[C@@H]2CCCN2C1=O [compound 325] (H-DCLGFMRKCIPDNDKCCRPNLNCSRTHKWCKYVF-NH2; disulfide 2-17, 9-23, 16-30) | 240 nM | 90 nM | 8070 nM |
| CC[C@H](C)[C@@H]1NC(=O)[C@@H]2CSSC[C@@H]3NC(=O)[C@H](Cc4c[nH]cn4)NC(=O)[C@H](CC(C)C)NC(=O)[C@H](CC(N)=O)NC(=O)[C@@H]4CCCN4C(=O)[C@H](CCCNC(=N)N)NC(=O)[C@H](CSSC[C@H](NC(=O)[C@@H](N)CC(=O)O)C(=O)N[C@@H](CC(C)C)C(=O)NCC(=O)N[C@@H](Cc4ccccc4)C(=O)N[C@@H](CCSC)C(=O)N[C@@H](CCCNC(=N)N)C(=O)N[C@@H](CCCCN)C(=O)N2)NC(=O)[C@H](CSSC[C@@H](C(=O)N[C@@H](CCCCN)C(=O)N[C@@H](Cc2ccc(O)cc2)C(=O)N[C@H](C(=O)N[C@@H](Cc2ccccc2)C(N)=O)C(C)C)NC(=O)[C@H](Cc2c[nH]c4ccccc24)NC(=O)[C@H](CCCCN)NC(=O)[C@H](Cc2c[nH]cn2)NC(=O)[C@H]([C@@H](C)O)NC(=O)[C@H](CCCNC(=N)N)NC(=O)[C@H](CO)NC3=O)NC(=O)[C@H](CCCCN)NC(=O)[C@H](CC(=O)O)NC(=O)[C@H](CC(N)=O)NC(=O)[C@H](CC(=O)O)NC(=O)[C@@H]2CCCN2C1=O [compound 326] (H-DCLGFMRKCIPDNDKCCRPNLHCSRTHKWCKYVF-NH2; disulfide 2-17, 9-23, 16-30) | 410 nM | 100 nM | 15600 nM |
| CC[C@H](C)[C@@H]1NC(=O)[C@@H]2CSSC[C@@H]3NC(=O)[C@H](CC(=O)O)NC(=O)[C@H](CC(C)C)NC(=O)[C@H](CC(N)=O)NC(=O)[C@@H]4CCCN4C(=O)[C@H](CCCNC(=N)N)NC(=O)[C@H](CSSC[C@H](NC(=O)[C@@H](N)CC(=O)O)C(=O)N[C@@H](CC(C)C)C(=O)NCC(=O)N[C@@H](Cc4ccccc4)C(=O)N[C@@H](CCSC)C(=O)N[C@@H](CCCNC(=N)N)C(=O)N[C@@H](CCCCN)C(=O)N2)NC(=O)[C@H](CSSC[C@@H](C(=O)N[C@@H](CCCCN)C(=O)N[C@@H](Cc2ccc(O)cc2)C(=O)N[C@H](C(=O)N[C@@H](Cc2ccccc2)C(N)=O)C(C)C)NC(=O)[C@H](Cc2c[nH]c4ccccc24)NC(=O)[C@H](CCCCN)NC(=O)[C@H](Cc2c[nH]cn2)NC(=O)[C@H]([C@@H](C)O)NC(=O)[C@H](CCCNC(=N)N)NC(=O)[C@H](CO)NC3=O)NC(=O)[C@H](CCCCN)NC(=O)[C@H](CC(=O)O)NC(=O)[C@H](CC(N)=O)NC(=O)[C@H](CC(=O)O)NC(=O)[C@@H]2CCCN2C1=O [compound 327] (H-DCLGFMRKCIPDNDKCCRPNLDCSRTHKWCKYVF-NH2; disulfide 2-17, 9-23, 16-30) | 1500 nM | 630 nM | 13300 nM |
| CC[C@H](C)[C@@H]1NC(=O)[C@@H]2CSSC[C@@H]3NC(=O)[C@H](Cc4ccccc4)N(C)C(=O)[C@H](CC(C)C)NC(=O)[C@H](CC(N)=O)NC(=O)[C@@H]4CCCN4C(=O)[C@H](CCCNC(=N)N)NC(=O)[C@H](CSSC[C@H](NC(=O)[C@@H](N)CC(=O)O)C(=O)N[C@@H](CC(C)C)C(=O)NCC(=O)N[C@@H](Cc4ccccc4)C(=O)N[C@@H](CCSC)C(=O)N[C@@H](CCCNC(=N)N)C(=O)N[C@@H](CCCCN)C(=O)N2)NC(=O)[C@H](CSSC[C@@H](C(=O)N[C@@H](CCCCN)C(=O)N[C@@H](Cc2ccc(O)cc2)C(=O)N[C@H](C(=O)N[C@@H](Cc2ccccc2)C(N)=O)C(C)C)NC(=O)[C@H](Cc2c[nH]c4ccccc24)NC(=O)[C@H](CCCCN)NC(=O)[C@H](Cc2c[nH]cn2)NC(=O)[C@H]([C@@H](C)O)NC(=O)[C@H](CCCNC(=N)N)NC(=O)[C@H](CO)NC3=O)NC(=O)[C@H](CCCCN)NC(=O)[C@H](CC(=O)O)NC(=O)[C@H](CC(N)=O)NC(=O)[C@H](CC(=O)O)NC(=O)[C@@H]2CCCN2C1=O [compound 328] (H-DCLGFMRKCIPDNDKCCRPNL[NMeF]CSRTHKWCKYVF-NH2; disulfide 2-17, 9-23, 16-30) | 20600 nM | 7370 nM | 20400 nM |
